Columns and labels:
UGT1A10 = target: T1, UGT1A10 (Homo sapiens, UniProt Q9HAW8); test: Inhibition of recombinant UGT-catalyzed 4-MU glucuronidation; type: biochemical; conditions: pH 7.4, probe 4-methylumbelliferone (4-MU), 30 μM, 100 μM compound, 4-MU probe substrate, negative = activation
T1 construct: purchased BD Gentest Corp. (Woburn, MA, USA); host or cells: baculovirus-infected insect cells
T1 sequence (Q9HAW8 26-530): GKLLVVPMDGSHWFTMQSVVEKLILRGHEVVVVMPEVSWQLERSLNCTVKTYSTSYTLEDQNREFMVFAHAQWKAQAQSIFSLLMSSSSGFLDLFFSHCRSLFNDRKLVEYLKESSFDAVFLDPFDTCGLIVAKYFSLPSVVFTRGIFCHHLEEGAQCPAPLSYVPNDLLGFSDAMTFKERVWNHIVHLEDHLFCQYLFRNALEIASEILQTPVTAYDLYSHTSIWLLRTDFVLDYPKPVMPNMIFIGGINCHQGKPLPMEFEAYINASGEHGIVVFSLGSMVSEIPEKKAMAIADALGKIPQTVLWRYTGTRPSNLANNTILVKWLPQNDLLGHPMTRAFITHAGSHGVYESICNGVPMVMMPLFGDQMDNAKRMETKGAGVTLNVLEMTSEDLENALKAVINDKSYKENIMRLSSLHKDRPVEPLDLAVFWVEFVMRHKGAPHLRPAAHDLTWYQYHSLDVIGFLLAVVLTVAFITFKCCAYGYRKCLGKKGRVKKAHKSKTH

UGT1A9 = target: T2, UGT1A9 (Homo sapiens, UniProt O60656); test: as above; type: biochemical; conditions: for inhibition at 30 min, 100 µM: human, pH 7.4, probe 4-methylumbelliferone (4-MU), 30 μM, 100 μM compound, 4-MU probe substrate, negative = activation
T2 construct: purchased BD Gentest Corp. (Woburn, MA, USA); host or cells: baculovirus-infected insect cells
T2 sequence (O60656 26-530): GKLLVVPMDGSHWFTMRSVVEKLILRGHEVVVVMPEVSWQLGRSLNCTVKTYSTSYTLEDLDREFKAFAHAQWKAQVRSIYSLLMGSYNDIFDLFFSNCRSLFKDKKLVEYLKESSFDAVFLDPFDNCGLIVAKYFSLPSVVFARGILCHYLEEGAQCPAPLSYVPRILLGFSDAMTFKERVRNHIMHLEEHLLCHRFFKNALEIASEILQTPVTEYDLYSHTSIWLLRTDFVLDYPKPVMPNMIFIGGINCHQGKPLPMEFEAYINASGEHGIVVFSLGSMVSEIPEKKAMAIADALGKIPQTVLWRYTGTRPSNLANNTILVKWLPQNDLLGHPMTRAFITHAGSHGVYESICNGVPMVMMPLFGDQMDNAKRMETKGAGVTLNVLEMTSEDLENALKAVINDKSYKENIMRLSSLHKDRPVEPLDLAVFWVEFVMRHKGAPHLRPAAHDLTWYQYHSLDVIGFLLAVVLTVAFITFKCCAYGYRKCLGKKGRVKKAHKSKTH

inhibition at 120 min, 100 µM (UGT1A10) | IC50 (UGT1A9; 4-MU glucuronidation, Probit analysis, read-out: IC50 towards UGT1A9) | inhibition type towards UGT1A9 (UGT1A9; Dixon plot and Lineweaver-Burk plot) | inhibition at 30 min, 100 µM (UGT1A9) | Ki (UGT1A9; second plot of Lineweaver-Burk slopes, read-out: inhibition constant (Ki) towards UGT1A9) | SMILES
-272% | 12.3 µM | competitively inhibited | 94.2% | 2.8 µM | O=c1c2cc(O)c(O)cc2oc2cc(O)cc(O)c12 [NTR, 1,3,6,7-tetrahydroxyxanthone]
-86.4% | – | – | 8.2% | – | O=c1c2cc(O)c(O)cc2oc2cc(O)c([C@@H]3O[C@H](CO)[C@@H](O)[C@H](O)[C@H]3O)c(O)c12 [MGF, 1,3,6,7-tetrahydroxyxanthone-C-2-β-D-glucoside]
